Experimental findings from patent US10450301B2, “Apoptosis signal-regulating kinase 1 inhibitors and methods of use thereof” (ENANTA PHARMACEUTICALS, INC., priority 2017, dated 2019) are described below.

The target of this experiment is ASK1 (Homo sapiens (Human), UniProt Q99683). The experiment can be described thus: HTRF KinEASE Assay (TR-FRET, STK3 peptide substrate), inhibition of ASK1. In kind it is biochemical. To be noted: 5 nM ASK1 kinase, 1 μM STK3 peptide substrate, 100 μM ATP, 3 hours; compound 0 to 10 μM. A digest of the protocol:
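TR-FRET HTRF KinEASE-STK format with an STK3 biotinylated peptide substrate. Signal tracks phosphorylation; IC50 from curve fitting.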
On the technique in general: In TR-FRET formats the signal depends on donor and acceptor labels being close together.

SMILES strings stand for the structures. Some results are limits rather than exact numbers.

Sequence of ASK1 (Q99683 whole entry): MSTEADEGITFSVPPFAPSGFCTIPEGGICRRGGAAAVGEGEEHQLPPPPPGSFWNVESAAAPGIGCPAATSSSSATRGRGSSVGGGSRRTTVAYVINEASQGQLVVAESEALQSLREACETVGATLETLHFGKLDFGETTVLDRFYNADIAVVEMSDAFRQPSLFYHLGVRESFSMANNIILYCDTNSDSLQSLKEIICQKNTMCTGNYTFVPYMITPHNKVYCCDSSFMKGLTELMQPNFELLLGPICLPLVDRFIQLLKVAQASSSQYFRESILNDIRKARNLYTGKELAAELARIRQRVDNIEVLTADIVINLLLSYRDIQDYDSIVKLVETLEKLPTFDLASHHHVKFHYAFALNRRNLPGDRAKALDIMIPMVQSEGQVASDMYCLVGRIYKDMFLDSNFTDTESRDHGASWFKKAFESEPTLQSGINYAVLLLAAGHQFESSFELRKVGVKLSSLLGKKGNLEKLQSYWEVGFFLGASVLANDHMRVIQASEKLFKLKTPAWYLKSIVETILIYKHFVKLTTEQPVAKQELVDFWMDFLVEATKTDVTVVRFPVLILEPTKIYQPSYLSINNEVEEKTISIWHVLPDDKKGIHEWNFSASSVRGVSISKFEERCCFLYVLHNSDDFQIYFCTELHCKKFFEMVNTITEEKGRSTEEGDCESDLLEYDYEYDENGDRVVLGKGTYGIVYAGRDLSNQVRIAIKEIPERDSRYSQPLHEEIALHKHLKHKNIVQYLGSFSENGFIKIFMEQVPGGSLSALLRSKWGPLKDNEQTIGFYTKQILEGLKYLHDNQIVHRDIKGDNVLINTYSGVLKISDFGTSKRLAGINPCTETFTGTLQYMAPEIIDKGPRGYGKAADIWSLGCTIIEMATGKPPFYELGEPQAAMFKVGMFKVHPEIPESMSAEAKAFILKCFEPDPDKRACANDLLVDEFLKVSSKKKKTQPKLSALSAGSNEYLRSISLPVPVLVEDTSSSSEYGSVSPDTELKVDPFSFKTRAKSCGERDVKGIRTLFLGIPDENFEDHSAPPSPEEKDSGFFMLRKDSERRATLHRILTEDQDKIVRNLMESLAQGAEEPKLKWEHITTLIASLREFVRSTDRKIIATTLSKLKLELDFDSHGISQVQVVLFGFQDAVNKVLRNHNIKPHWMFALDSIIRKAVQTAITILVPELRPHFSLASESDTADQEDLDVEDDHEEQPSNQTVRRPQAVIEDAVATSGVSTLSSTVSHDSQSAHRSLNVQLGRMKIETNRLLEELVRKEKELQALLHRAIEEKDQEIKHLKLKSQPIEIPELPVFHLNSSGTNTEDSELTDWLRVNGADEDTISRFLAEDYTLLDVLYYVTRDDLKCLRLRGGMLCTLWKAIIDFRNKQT

Consider `CC(C)n1nnnc1-c1cccc(NC(=O)c2cc3c(cn2)CCN(S(=O)(=O)CC2CC(F)(F)C2)C3)n1` [Example 139], for which the IC50 (as a rule, the midpoint of a concentration-inhibition curve) lay within 0.001 to 0.01 µM.

`CC(C)n1nnnc1-c1cccc(NC(=O)c2cc3c(cn2)CCN(S(=O)(=O)CC(F)(F)F)C3)n1` [Example 140] returned a 50% inhibitory concentration (IC50) of 0.01 to 0.1 µM. For the compound `CC(C)CS(=O)(=O)N1CCc2cnc(C(=O)Nc3cccc(-c4nnnn4C(C)C)n3)cc2C1` [Example 141], the IC50 was in the range of 0.001 to 0.01 µM. With `C[C@H](CO)n1nnnc1-c1cccc(NC(=O)c2cc3c(cn2)CCN(C=O)C3)n1` [Example 142, (R)-6-formyl-N-(6-(1-(1-hydroxypropan-2-yl)-1H-tetrazol-5-yl)pyridin-2-yl)-5,6,7,8-tetrahydro-2,6-naphthyridine-3-carboxamide], the IC50 was in the range of 0.001 to 0.01 µM.

Consider `C[C@H](CO)n1nnnc1-c1cccc(NC(=O)c2cc3c(cn2)CCN(C(=O)OC(C)(C)C)C3)n1` [Example 143, tert-butyl (R)-7-((6-(1-(1-hydroxypropan-2-yl)-1H-tetrazol-5-yl)pyridin-2-yl)carbamoyl)-3,4-dihydro-2,6-naphthyridine-2(1H)-carboxylate], for which the IC50 was in the range of 0.001 to 0.01 µM. `C[C@H](CO)n1nnnc1-c1cccc(NC(=O)c2cc3c(cn2)CCN(C(=O)N2CCCC2)C3)n1` [Example 144, (R)—N-(6-(1-(1-hydroxypropan-2-yl)-1H-tetrazol-5-yl)pyridin-2-yl)-6-(pyrrolidine-1-carbonyl)-5,6,7,8-tetrahydro-2,6-naphthyridine-3-carboxamide]: the IC50 was in the range of 0.001 to 0.01 µM.

Regarding `CCOC(=O)N1CCc2cnc(C(=O)Nc3cccc(-c4nnnn4[C@H](C)CO)n3)cc2C1` [Example 145], the IC50 fell in the range of 0.001 to 0.01 µM. Under `C[C@H](CO)n1nnnc1-c1cccc(NC(=O)c2cc3c(cn2)CCN(C(=O)C2CCCC2)C3)n1` [Example 146, (R)-6-(cyclopentanecarbonyl)-N-(6-(1-(1-hydroxypropan-2-yl)-1H-tetrazol-5-yl)pyridin-2-yl)-5,6,7,8-tetrahydro-2,6-naphthyridine-3-carboxamide] stands 0.001 to 0.01 µM.

Regarding `CC(=O)OC[C@@H](C)n1nnnc1-c1cccc(NC(=O)c2cc3c(cn2)CCN(C(=O)OC(C)(C)C)C3)n1` [Example 147, tert-butyl (R)-7-((6-(1-(1-acetoxypropan-2-yl)-1H-tetrazol-5-yl)pyridin-2-yl)carbamoyl)-3,4-dihydro-2,6-naphthyridine-2(1H)-carboxylate], the IC50 is 0.1 to 1 µM. `C[C@H](CO)n1nnnc1-c1cccc(NC(=O)c2cc3c(cn2)CCN(S(=O)(=O)C2CC2)C3)n1` [Example 148] registered an IC50 of 0.001 to 0.01 µM. Under `CC(C)S(=O)(=O)N1CCc2cnc(C(=O)Nc3cccc(-c4nnnn4[C@H](C)CO)n3)cc2C1` [Example 149] stands 0.001 to 0.01 µM. In turn, `C[C@H](CO)n1nnnc1-c1cccc(NC(=O)c2cc3c(cn2)CCN(S(=O)(=O)CCC(F)(F)F)C3)n1` [Example 150] displayed a half-maximal inhibitory concentration (IC50) of 0.001 to 0.01 µM.

Regarding `CC(C)CC(=O)N1CCc2cnc(C(=O)Nc3cccc(-c4nnnn4[C@H](C)CO)n3)cc2C1` [Example 151], the half-maximal inhibitory concentration (IC50) fell in the range of 0.001 to 0.01 µM.

`C[C@H](CO)n1nnnc1-c1cccc(NC(=O)c2cc3c(cn2)CCN(C(=O)C(C)(C)C)C3)n1` [Example 152]: the IC50 lay within 0.001 to 0.01 µM. `CC(C)n1nnnc1-c1cccc(NC(=O)c2cc3c(cn2)CCN(C(=O)OC(C)(C)C)C3)n1` [Example 153, tert-butyl 7-((6-(1-isopropyl-1H-tetrazol-5-yl)pyridin-2-yl)carbamoyl)-3,4-dihydro-2,6-naphthyridine-2(1H)-carboxylate] came in with an IC50 of 0.01 to 0.1 µM. Consider `C[C@H](CO)n1nnnc1-c1cccc(NC(=O)c2cc3c(cn2)CCN(S(=O)(=O)N2CCCC2)C3)n1` [Example 154], for which the concentration for half-maximal inhibition (IC50) was in the range of 0.001 to 0.01 µM.

`C[C@H](CO)n1nnnc1-c1cccc(NC(=O)c2cc3c(cn2)CCN(C(=O)C2CC2)C3)n1` [Example 155] had an IC50 of 0.001 to 0.01 µM. Take `C[C@H](CO)n1nnnc1-c1cccc(NC(=O)c2cc3c(cn2)CCN(C(=O)OC2CCCC2)C3)n1` [Example 156]: the 50% inhibitory concentration (IC50) was in the range of 0.001 to 0.01 µM. The same measure for `C[C@H](CO)n1nnnc1-c1cccc(NC(=O)c2cc3c(cn2)CCN(C(=O)OC2CCC2)C3)n1` [Example 157]: 0.001 to 0.01 µM; for `COCCOC(=O)N1CCc2cnc(C(=O)Nc3cccc(-c4nnnn4[C@H](C)CO)n3)cc2C1` [Example 158]: 0.001 to 0.01 µM.

`C[C@H](CO)n1nnnc1-c1cccc(NC(=O)c2cc3c(cn2)CCN(C(=O)OCC(C)(C)C)C3)n1` [Example 159]: the IC50 is 0.001 to 0.01 µM. `CCCOC(=O)N1CCc2cnc(C(=O)Nc3cccc(-c4nnnn4[C@H](C)CO)n3)cc2C1` [Example 160] came in with a half-inhibitory concentration (IC50) of 0.001 to 0.01 µM. As for `CC(C)CS(=O)(=O)N1CCc2cnc(C(=O)Nc3cccc(-c4nnnn4[C@H](C)CO)n3)cc2C1` [Example 161], the IC50 is 0.001 to 0.01 µM. Turning to `CC(C)OC(=O)N1CCc2cnc(C(=O)Nc3cccc(-c4nnnn4[C@H](C)CO)n3)cc2C1` [Example 162, isopropyl (R)-7-((6-(1-(1-hydroxypropan-2-yl)-1H-tetrazol-5-yl)pyridin-2-yl)carbamoyl)-3,4-dihydro-2,6-naphthyridine-2(1H)-carboxylate], the IC50 fell in the range of 0.001 to 0.01 µM.

`C[C@H](CO)n1nnnc1-c1cccc(NC(=O)c2cc3c(cn2)CCN(CC2CC2)C3)n1` [Example 163, (R)-6-(cyclopropylmethyl)-N-(6-(1-(1-hydroxypropan-2-yl)-1H-tetrazol-5-yl)pyridin-2-yl)-5,6,7,8-tetrahydro-2,6-naphthyridine-3-carboxamide] returned an IC50 of 0.001 to 0.01 µM.

The compound `CC(C)CN1CCc2cnc(C(=O)Nc3cccc(-c4nnnn4[C@H](C)CO)n3)cc2C1` [Example 164] displayed an IC50 of 0.001 to 0.01 µM. The compound `CCCN1CCc2cnc(C(=O)Nc3cccc(-c4nnnn4[C@H](C)CO)n3)cc2C1` [Example 165] gave an IC50 of 0.001 to 0.01 µM. As to `C[C@H](CO)n1nnnc1-c1cccc(NC(=O)c2cc3c(cn2)CCN(S(=O)(=O)N(C)C)C3)n1` [Example 166], the IC50 was 0.001 to 0.01 µM. On to `CCN(C)C(=O)N1CCc2cnc(C(=O)Nc3cccc(-c4nnnn4[C@H](C)CO)n3)cc2C1` [Example 167], for which the IC50 lay in the range of 0.001 to 0.01 µM. Compound `C[C@H](CO)n1nnnc1-c1cccc(NC(=O)c2cc3c(cn2)CCN(C(=O)N(C)C)C3)n1` [Example 168] showed an IC50 of 0.001 to 0.01 µM. As for `C[C@H](CO)n1nnnc1-c1cccc(NC(=O)c2cc3c(cn2)CCN(C(=O)NC2CCCC2)C3)n1` [Example 169], the IC50 fell in the range of 0.001 to 0.01 µM. The same measure for `CCNC(=O)N1CCc2cnc(C(=O)Nc3cccc(-c4nnnn4[C@H](C)CO)n3)cc2C1` [Example 170]: 0.001 to 0.01 µM.

Compound `C[C@H](CO)n1nnnc1-c1cccc(NC(=O)c2cc3c(cn2)CCN(Cc2ccccn2)C3)n1` [Example 171] showed an IC50 of 0.001 to 0.01 µM. `CC(C)n1nnnc1-c1cccc(NC(=O)c2cc3c(cn2)CCN(S(=O)(=O)CCC(F)(F)F)C3)n1` [Example 172] yielded an IC50 of 0.001 to 0.01 µM.

The compound `CC(C)n1nnnc1-c1cccc(NC(=O)c2cc3c(cn2)CCN(C(=O)N2CCCC2)C3)n1` [Example 173] yielded an IC50 of 0.001 to 0.01 µM.

`COc1cc2c(cc1C(=O)Nc1cccc(-c3nnnn3C(C)C)n1)C(=O)N(C(C)C)C2` [Example 174] gave an IC50 of 0.1 to 1 µM. Under `COc1cc2c(cc1C(=O)Nc1cccc(-c3nncn3C(C)C)n1)C(=O)N(C(C)C)C2` [Example 175, 2-isopropyl-N-(6-(4-isopropyl-4H-1,2,4-triazol-3-yl)pyridin-2-yl)-6-methoxy-3-oxoisoindoline-5-carboxamide] stands 0.01 to 0.1 µM. Compound `CC(C)N1Cc2cc(F)c(C(=O)Nc3cccc(-c4nnnn4C(C)C)n3)cc2C1=O` [Example 176] had a half-maximal inhibitory concentration (IC50) greater than 1 µM. Under `CC(C)N1Cc2cc(F)c(C(=O)Nc3cccc(-c4nncn4C(C)C)n3)cc2C1=O` [Example 177, 6-fluoro-2-isopropyl-N-(6-(4-isopropyl-4H-1,2,4-triazol-3-yl)pyridin-2-yl)-3-oxoisoindoline-5-carboxamide] stands greater than 1 µM. The compound `C[C@H](CO)n1nnnc1-c1cccc(NC(=O)c2cc3c(cn2)CN(C(=O)OCc2ccccc2)C3)n1` [Example 178] returned an IC50 of 0.001 to 0.01 µM. In the case of `CC(C)n1cnnc1-c1cccc(NC(=O)c2cc3c(cn2)CN(C(=O)OCc2ccccc2)C3)n1` [Example 179, benzyl 6-((6-(4-isopropyl-4H-1,2,4-triazol-3-yl)pyridin-2-yl)carbamoyl)-1,3-dihydro-2H-pyrrolo[3,4-c]pyridine-2-carboxylate], the IC50 lay in the range of 0.01 to 0.1 µM. The same measure for `CC(C)n1nnnc1-c1cccc(NC(=O)c2cc3c(cn2)CN(C(=O)OCc2ccccc2)C3)n1` [Example 180]: greater than 1 µM; for `C[C@H](CO)n1nnnc1-c1cccc(NC(=O)c2cc3c(cn2)CCN(C)C3)n1` [Example 181]: 0.001 to 0.01 µM; for `C[C@H](CO)n1nnnc1-c1cccc(NC(=O)c2cc3c(cn2)CCN(C(=O)N2[C@@H]4CCC[C@H]2CC4)C3)n1` [Example 182, 6-((1R,5 S)-8-azabicyclo[3.2.1]octane-8-carbonyl)-N-(6-(1-((R)-1-hydroxypropan-2-yl)-1H-tetrazol-5-yl)pyridin-2-yl)-5,6,7,8-tetrahydro-2,6-naphthyridine-3-carboxamide]: 0.001 to 0.01 µM. Consider `C[C@H](CO)n1nnnc1-c1cccc(NC(=O)c2cc3c(cn2)CCN(C(=O)NCCC(F)(F)F)C3)n1` [Example 183], for which the IC50 was 0.001 to 0.01 µM. `CC(C)n1cnnc1-c1cccc(NC(=O)c2ccc3c(c2)CN(C(=O)OC(C)(C)C)CC3)n1` [Example 183a] gave an IC50 greater than 1 µM. On to `C[C@H](CO)n1nnnc1-c1cccc(NC(=O)c2cc3c(cn2)CCN(C(=O)N(C)C2CCCC2)C3)n1` [Example 184, (R)—N2-cyclopentyl-N7-(6-(1-(1-hydroxypropan-2-yl)-1H-tetrazol-5-yl)pyridin-2-yl)-N2-methyl-3,4-dihydro-2,6-naphthyridine-2,7(1H)-dicarboxamide], for which the concentration for half-maximal inhibition (IC50) is greater than 1 µM.
